Assay results: PubChem BioAssay (NCI)
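Briefly, cells in 96-well plates were exposed to five compound concentrations for 48 h, and endpoints were estimated by linear interpolation. TGI marks complete inhibition of growth.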

Key:
Assay in all cases: NCI anticancer screen, dose series, 48 h
[1] = test system: SF-268 CNS
[2] = test system: HT29 colon
[3] = test system: SW-620 colon
[4] = test system: SNB-19 CNS
[5] = test system: SF-295 CNS
[6] = test system: MDA-MB-435
[7] = test system: KM12 colon
[8] = test system: IGROV1 ovarian
[9] = test system: UO-31 renal
[10] = test system: MOLT-4 leukemia
[11] = test system: DU-145 prostate
[12] = test system: A549 NSCLC
[13] = test system: OVCAR-5 ovarian
[14] = test system: SR leukemia
[15] = test system: U251 CNS
[16] = test system: LOX IMVI melanoma

SMILES | TGI [1] | TGI [2] | TGI [3] | TGI [4] | TGI [5] | TGI [6] | TGI [7] | TGI [8] | TGI [9] | TGI [10] | TGI [11] | TGI [12] | TGI [13] | TGI [14] | TGI [15] | TGI [16]
Cc1cc2ccccc2n2c1nc1ccccc12 | > 100 µM | > 100 µM | > 100 µM | > 100 µM | > 100 µM | > 100 µM | > 100 µM | > 100 µM | > 100 µM | > 100 µM | > 100 µM | > 100 µM | > 100 µM | > 100 µM | > 100 µM | –
CCOC(=O)/C(C#N)=C\c1ccc(N(CCC(=O)O)CCC(=O)O)c(I)c1 | > 10 µM | > 10 µM | > 10 µM | > 10 µM | > 10 µM | > 10 µM | > 10 µM | > 10 µM | > 10 µM | > 10 µM | > 10 µM | > 10 µM | – | > 10 µM | – | > 10 µM
CSc1nc(C#N)c(/N=C\N(C)C)n1C | > 100 µM | – | > 100 µM | > 100 µM | > 100 µM | > 100 µM | > 100 µM | > 100 µM | > 100 µM | > 100 µM | > 100 µM | > 100 µM | > 100 µM | > 100 µM | > 100 µM | > 100 µM
CC1=NN(C(=O)c2ccccc2O)C(=O)/C1=C/c1ccco1 | > 100 µM | > 100 µM | > 100 µM | > 91.1 µM | > 88.3 µM | > 100 µM | > 100 µM | > 35.4 µM | – | > 100 µM | > 100 µM | > 100 µM | > 100 µM | > 100 µM | > 100 µM | > 75.5 µM
COC1(OC)c2no[n+]([O-])c2CCC1O (stereo not given) | > 100 µM | > 100 µM | > 100 µM | > 100 µM | > 100 µM | > 100 µM | > 100 µM | > 100 µM | > 100 µM | > 100 µM | > 100 µM | > 100 µM | > 100 µM | > 100 µM | – | > 100 µM
O=C1/C(=C/c2ccccc2O)N=C(c2ccccc2)N1C1Nc2cc3c(cc2S1)NC(N1C(=O)/C(=C/c2ccccc2O)N=C1c1ccccc1)S3 (stereo not given) | 59.6 µM | > 100 µM | > 100 µM | – | > 100 µM | > 100 µM | > 100 µM | > 100 µM | > 100 µM | > 100 µM | > 100 µM | – | > 100 µM | > 100 µM | > 100 µM | > 100 µM
Cc1csc2[n+]1C(=O)/C(=C\c1ccc([N+](=O)[O-])cc1)S2 | 86.5 µM | 60.2 µM | > 100 µM | 87.3 µM | 65.1 µM | 59.9 µM | 82.1 µM | – | 39.3 µM | > 100 µM | > 100 µM | > 100 µM | > 100 µM | > 100 µM | 45.7 µM | 60.4 µM
CCOP(=O)(OCC)/C(C#N)=C/c1ncc[nH]1 | > 100 µM | > 100 µM | > 100 µM | > 100 µM | > 100 µM | > 100 µM | > 100 µM | – | > 100 µM | > 100 µM | > 100 µM | > 100 µM | > 100 µM | > 100 µM | > 100 µM | > 100 µM
C=CCNC(=O)NC(=O)CSC1=NNC2(C(=O)N1)c1ccccc1-c1ccccc12 | > 10 µM | > 10 µM | > 10 µM | > 10 µM | > 10 µM | > 10 µM | > 10 µM | > 10 µM | > 10 µM | > 10 µM | > 10 µM | > 10 µM | > 10 µM | > 10 µM | – | > 10 µM
CCSc1[nH]c(NC(=S)NC(=O)c2ccccc2Cl)c(C(N)=O)c1C(N)=O | > 10 µM | > 10 µM | > 10 µM | – | > 10 µM | > 10 µM | > 10 µM | > 10 µM | – | > 10 µM | > 10 µM | > 10 µM | – | > 10 µM | – | > 10 µM
CNc1ncnc2c1ncn2C1C=CC(COS(N)(=O)=O)C1 (stereo not given) | > 100 µM | > 100 µM | > 100 µM | > 100 µM | > 100 µM | > 100 µM | > 100 µM | > 100 µM | > 100 µM | > 100 µM | > 100 µM | > 100 µM | – | > 100 µM | > 100 µM | > 100 µM
Cn1c(=O)c(Br)c(C=O)n(CCO[N+](=O)[O-])c1=O | 31.3 µM | – | 5.45 µM | 68.4 µM | – | 21.6 µM | – | – | – | 5.8 µM | > 100 µM | 33 µM | 13.8 µM | 5.48 µM | 9.77 µM | 5.51 µM
CC(=O)NC1C(OCc2ccccc2)OC(CO)C(O)C1OC(C)C(=O)NC(C(=O)N[C@@H](CCC(=O)NCCNCCNc1c2ccccc2nc2cccc([N+](=O)[O-])c12)C(N)=O)C(C)C (stereo not given in full) | > 100 µM | – | 58.5 µM | > 100 µM | > 100 µM | 29.3 µM | 98.7 µM | > 100 µM | 64.6 µM | 53.2 µM | > 100 µM | 97 µM | – | 5.24 µM | > 100 µM | > 100 µM
Cc1cc2c(cc1-c1cc3c(cc1C)C(C(C)C)=C(O)C(=O)/C3=C\Nc1c3ccccc3nc3ccccc13)/C(=C/Nc1c3ccccc3nc3ccccc13)C(=O)C(O)=C2C(C)C | 14.7 µM | 5.1 µM | 13.3 µM | 13.6 µM | 12.9 µM | 17.1 µM | 14.1 µM | 11.1 µM | 15.4 µM | 16 µM | 20.6 µM | 13.1 µM | 16.7 µM | 18.4 µM | 13.7 µM | –
COC(=O)/C=C(/C)n1nc2ccccc2n1 | > 100 µM | > 100 µM | > 100 µM | > 100 µM | > 100 µM | > 100 µM | > 100 µM | > 100 µM | > 100 µM | > 100 µM | > 100 µM | > 100 µM | > 100 µM | > 100 µM | > 100 µM | –
